# Results reported in patent publication US20230201174A1, “COMBINATION OF FINERENONE AND A SGLT2 INHIBITOR FOR THE TREATMENT AND/OR PREVENTION OF CARDIOVASCULAR AND/OR RENAL DISEASES” (BAYER AKTIENGESELLSCHAFT, priority 2020, published 2023).
# Key:
# [1] = tended to increase on day 1 after administration; cited from earlier work
# [2] = system: Wistar rats with activated renin-angiotensin-aldosterone system; assay: In vivo assay for detecting natriuretic activity in conscious rats with activated RAAS; design: species or system rat; details: for Urinary Glucose concentration / Urinary K+ concentration / Urinary Na+ concentration / Urinary Volume/ body weight: Table 4, 24 h urine, mean ± SEM
# Experimental: Wistar rats (ca. 250-500 g body weight) were kept with free access to feed (Altromin) and drinking water. […] This sodium-reduced feed causes an activation of the RAAS in the animals during the 3 days run-in phase and therefore mimics a neuroendocrine activation which is characteristic for cardiorenal diseases. […] At the start of the test, the substance to be tested was administered by means of gavage in a volume of 2-3 ml/kg of body weight of a suitable solvent PEG400). Control animals received only solvent (‘S’ or solvent in table 2 below). Controls and substance tests were carried out in parallel on the same day. Control groups and substance-dose groups each consisted of 6 to 10 animals. During the test, the urine excreted by the animals was continuously collected in a receiver on the base of the cage.
# In this comparison, eight different administrations were performed (cf. groups A to H):
# Group A received the solvent (PEG400) only. This group serves as control group.
# Groups B, C and D received three increasing dosages of empagliflozin (SGLT2 inhibitor) only. It serves to detect the effects of the monotherapy with SGLT2 inhibitor.
# Group E received a finerenone only. It serves to detect the effect of the monotherapy with finerenone.
# Groups F, G and H received finerenone and the three doses of SGLT2 inhibitor in combination, respectively. It serves to detect the effect of the combined therapy with finerenone and empagliflozin (SGLT2 inhibitor) (combination according to the invention).
# After the treatment, the urinary volume, urinary glucose, urinary sodium and potassium concentrations were measured.
# [3] = Table 4 study, monotherapy 10 mg/kg
# [4] = Table 4 study, monotherapy: canagliflozin 1 and 3 mg/kg, finerenone 1 mg/kg
smiles,measurement,setting,value
"Cc1ccc([C@@H]2O[C@H](CO)[C@@H](O)[C@H](O)[C@H]2O)cc1Cc1ccc(-c2ccc(F)cc2)s1 [canagliflozin, (2S,3R,4R,5S,6R)-2-(3-{[5-(4-fluorophenyl)thiophen-2-yl]methyl}-4-methylphenyl)-6-(hydroxymethyl)oxane-3,4,5-triol]","urinary Na+ excretion, in words",[1],returned to baseline from day 2 to 5
same,Urinary Glucose concentration,[2]; monotherapy 1 mg/kg oral,2.76 ± 0.36 mmol
same,Urinary K+ concentration,[2]; monotherapy 1 mg/kg oral,1.86 ± 0.11 mmol
same,Urinary Na+ concentration,[2]; monotherapy 1 mg/kg oral,0.15 ± 0.03 mmol
same,Urinary Volume/ body weight,[2]; monotherapy 1 mg/kg oral,0.03108 ± 0.00317 L/kg
same,Urinary Glucose concentration,[2]; monotherapy 3 mg/kg oral,6.94 ± 0.44 mmol
same,Urinary K+ concentration,[2]; monotherapy 3 mg/kg oral,2.40 ± 0.17 mmol
same,Urinary Na+ concentration,[2]; monotherapy 3 mg/kg oral,0.21 ± 0.05 mmol
same,Urinary Volume/ body weight,[2]; monotherapy 3 mg/kg oral,0.04049 ± 0.00243 L/kg
same,Urinary Glucose concentration,[2]; monotherapy 10 mg/kg oral,9.99 ± 0.46 mmol
same,Urinary K+ concentration,[2]; monotherapy 10 mg/kg oral,2.36 ± 0.15 mmol
same,Urinary Na+ concentration,[2]; monotherapy 10 mg/kg oral,0.41 ± 0.08 mmol
same,Urinary Volume/ body weight,[2]; monotherapy 10 mg/kg oral,0.05583 ± 0.00352 L/kg
same,"influence on urinary sodium, in words",[2]; [3],increase
same,"influence on urinary volume, in words",[2]; [3],increase
same,"influence on urinary potassium, in words",[2]; [4],no influence
same,"influence on urinary sodium, in words",[2]; [4],no influence
same,"influence on urinary volume, in words",[2]; [4],no influence
same,"influence on urinary glucose, in words","[2]; Table 4 study, monotherapy: canagliflozin all doses (1, 3, 10 mg/kg), finerenone 1 mg/kg",strong increase
